Measurements taken from patent US20020155518A1, “Method of detecting compounds that control fungal diseases via effects on sporulation” (priority 2000, published 2002).

Key:
[1] = system: Leptosphaeria (Septoria) nodorum; experiment: Protectant foliar spray test against wheat L. nodorum blotch; assay type: in vivo; also: key: '+++' =high control; '++' =moderate control; '+' =low control; '0'=no control
[2] = system: Rice Blast (Magnaporthe grisea); assay type: in vivo; settings: foliar spray before inoculation, vs untreated inoculated controls
[3] = system: Wheat Powdery Mildew (Blumeria [Erysiphe] graminis f.sp. tritici); settings: in vivo; also: key: '+++' =high control; '++' =moderate control; '+' =low control; '0'=no control
[4] = system: Apple Scab (Venturia inaequalis); experiment: Protectant foliar spray test against apple scab; assay type: in vivo; also: key: '+++' =high control; '++' =moderate control; '+' =low control; '0'=no control
[5] = wheat, foliar spray before inoculation, vs untreated inoculated controls
[6] = apple seedlings, foliar spray before inoculation, vs untreated inoculated controls

| SMILES | Level of Plant Disease Control, Wheat L. nodorum [1, 5] | Level of Plant Disease Control, Rice Blast [2] | Level of Plant Disease Control, Wheat Powdery Mildew [3] | Level of Plant Disease Control, Apple Scab [4, 6] | Level of Plant Disease Control, Wheat L. nodorum ([1]; in vivo) | Level of Plant Disease Control, Apple Scab ([4]; in vivo) |
| --- | --- | --- | --- | --- | --- | --- |
| COc1cc(C)c(C(=O)c2c(C)cccc2C)c(OCc2c(F)cc(F)cc2F)c1OC [H, [3,4-dimethoxy-6-methyl-2-[(2,4,6-trifluorophenyl)methoxy]phenyl](2,6-dimethylphenyl)methanone] | 0 | 0 | +++ | 0 |  |  |
| COc1cc(C)c(C(=O)c2c(Cl)cccc2OC)c(OCc2cccc(C)c2)c1OC [I, (2-chloro-6-methoxyphenyl)[3,4-dimethoxy-6-methyl-2-[(3-methylphenyl)methoxy]phenyl]methanone] | 0 | + | +++ | ++ |  |  |
| COc1cc(C)c(C(=O)c2c(OC)ccc(Br)c2Cl)c(OC)c1OC [J, (3-bromo-2-chloro-6-methoxyphenyl)(2,3,4-trimethoxy-6-methylphenyl)methanone] | 0 | 0 | +++ | + |  |  |
| COc1cc(C(=O)c2c(Cl)cccc2Cl)c(C)cc1OC1CCCC1 [K, [4-(cyclopentyloxy)-5-methoxy-2-methylphenyl](2,6-dichlorophenyl)methanone] | +++ | 0 | 0 |  |  |  |
| COc1cc(C)c(C(=O)c2c(C)cccc2C)c(OC)c1OC [L, (2,6-dimethylphenyl)(2,3,4-trimethoxy-6-methylphenyl)methanone] | 0 | 0 | +++ | 0 |  |  |
| COc1cc(C)c(C(=O)c2c(OC)ccc(Br)c2C)c(OC)c1OC [M, (3-bromo-6-methoxy-2-methylphenyl)(2,3,4-trimethoxy-6-methylphenyl)methanone] |  | 0 | +++ |  | 0 | +++ |
| COc1cc(C)c(C(=O)c2c(C)cccc2C)c(OCc2ccccc2)c1OC [O, [3,4-dimethoxy-6-methyl-2-(phenylmethoxy)phenyl](2,6-dimethylphenyl)methanone] | 0 | ++ | +++ | 0 |  |  |
| CCCCCOc1c(OC)cc(C)c(C(=O)c2c(OC)ccc(C)c2Cl)c1OC [P, (2-chloro-6-methoxy-3-methylphenyl)[2,4-dimethoxy-6-methyl-3-(pentyloxy)phenyl]methanone] | 0 | ++ | +++ | 0 |  |  |
| COc1cc(C)c(C(=O)c2c(C)ccc(Cl)c2C)c(OC)c1OC [Q, (3-chloro-2,6-dimethylphenyl)(2,3,4-trimethoxy-6-methylphenyl)methanone] | 0 | ++ | +++ | + |  |  |
| COc1cc(C)c(C(=O)c2c(OC)ccc(Cl)c2C)c(OC)c1OC [R, (3-chloro-6-methoxy-2-methylphenyl)(2,3,4-trimethoxy-6-methylphenyl)methanone] | 0 | ++ | +++ | 0 |  |  |
| COc1cc(C)c(C(=O)c2c(OC)ccc(C(F)(F)F)c2C)c(OC)c1OC [T, [6-methoxy-2-methyl-3-(trifluoromethyl)phenyl](2,3,4-trimethoxy-6-methylphenyl)methanone] | 0 | 0 | +++ | 0 |  |  |
| CCCC(C)Oc1cc(C)c(C(=O)c2c(Cl)cccc2Cl)cc1OC (stereo not shown) [U, (2,6-dichlorophenyl)[5-methoxy-2-methyl-4-(1-methylbutoxy)phenyl]methanone] | +++ | ++ | ++ | 0 |  |  |
| COc1cc(C)c(C(=O)c2c(Cl)cccc2Cl)c(OCc2ccccc2F)c1OC [V, (2,6-dichlorophenyl)[2-[(2-fluorophenyl)methoxy]-3,4-dimethoxy-6-methylphenyl]methanone] | 0 | ++ | +++ | 0 |  |  |
| CCC(=O)Oc1c(OC)c(OC)cc(C)c1C(=O)c1c(Cl)cccc1Cl [W, (2,6-dichlorophenyl)[3,4-dimethoxy-6-methyl-2-(1-oxopropoxy)phenyl]methanone] | 0 | +++ | +++ | +++ |  |  |
